Experimental data reported in PMC7346179, “Fe Porphyrin-Based SOD Mimic and Redox-Active Compound, (OH)FeTnHex-2-PyP^4+, in a Rodent Ischemic Stroke (MCAO) Model: Efficacy and Pharmacokinetics as Compared to Its Mn Analogue, (H2O)MnTnHex-2-PyP^5+” (Antioxidants, 2020).
“And” between values parts separate entries of the source, which are not always exact repeats. Identical values can stand only once.

Legend:
[1] = 2-h PK study in rats that underwent MCAO; type: in vivo
Description: Samples were prepared as described in [10] with modifications to accommodate the small tissue sizes and enhance the detection sensitivity. Quantitative liquid chromatography electrospray-ionization tandem mass spectrometry (LCMS/MS) analysis was performed on a Shimadzu 20A series HPLC (LC)-Applied Biosystems/MDS Sciex API 3200 QTrap or API 4000 QTrap tandem-mass spectrometer (MS/MS) as described earlier. The use of heptafluorobutyric acid (HFBA) mobile phase modifier as an ion-pairing agent increases the overall lipophilicity and volatility, which increases the retention and ionization efficiency of the analytes, affording an abundance of HFBA-associated ions. […] (OH)FeTnBuOE-2-PyP^4+ was prepared as described for other Fe(III) N-alkylpyridylporphyrins and analogous (H2O)MnTnBuOE-2-PyP^5+ [13, 16]. The solvents employed were: A = 95:5 H2O:MeCN (0.1% HFBA); B = MeCN (0.1% HFBA). […] With the chosen solvent system, all four atropoisomers collapsed into a single peak, enhancing the sensitivity of the method to as low as 0.5 nM (nanomoles per L of tissue homogenate). Analyses were performed using a Phenomenex Luna C18 guard cartridge (ID × L, 2 × 4 mm) only. […] Their structures are also shown. […] The response was calculated as the ratio between the standard peak area and the internal standard peak area. Another possible cause for the failure of therapeutics in stroke may be their slow accumulation in the brain, i.e., not being there in time to prevent the burst of reactive species and rapid activation of transcription factors, which perpetuate oxidative stress. We therefore conducted short-term 2-h PK to evaluate how fast post-MCAO our drug gets into the brain. Three rats per compound were subjected to 90 min of transient right MCAO as reported. The first dose of 0.225 mg/kg was given IV via the […] at 5 min after ischemia/reperfusion. The second dose of 0.225 mg/kg was given SC at 30 min after reperfusion. Blood was collected at 2 h and plasma harvested. Rats were perfused with heparin saline (2000 IU/500 mL) until no reddish fluid came out from the right atrium. Then, the liver, and left and right brain were collected and placed on dry ice and stored at -20 °C. Plasma, liver, and brain were analyzed by LCMS/MS.

[2] = 7-day PK study in healthy rats; type: in vivo
Description: Samples were prepared as described in [10] with modifications to accommodate the small tissue sizes and enhance the detection sensitivity. Quantitative liquid chromatography electrospray-ionization tandem mass spectrometry (LCMS/MS) analysis was performed on a Shimadzu 20A series HPLC (LC)-Applied Biosystems/MDS Sciex API 3200 QTrap or API 4000 QTrap tandem-mass spectrometer (MS/MS) as described earlier. The use of heptafluorobutyric acid (HFBA) mobile phase modifier as an ion-pairing agent increases the overall lipophilicity and volatility, which increases the retention and ionization efficiency of the analytes, affording an abundance of HFBA-associated ions. […] (OH)FeTnBuOE-2-PyP^4+ was prepared as described for other Fe(III) N-alkylpyridylporphyrins and analogous (H2O)MnTnBuOE-2-PyP^5+ [13, 16]. The solvents employed were: A = 95:5 H2O:MeCN (0.1% HFBA); B = MeCN (0.1% HFBA). […] With the chosen solvent system, all four atropoisomers collapsed into a single peak, enhancing the sensitivity of the method to as low as 0.5 nM (nanomoles per L of tissue homogenate). Analyses were performed using a Phenomenex Luna C18 guard cartridge (ID × L, 2 × 4 mm) only. […] Their structures are also shown. […] The response was calculated as the ratio between the standard peak area and the internal standard peak area. We conducted a 7-day rat PK study under conditions identical to those that afforded the therapeutic efficacy of MnTnHex-2-PyP^5+ in an earlier study. […] Afterwards, blood/plasma samples were collected before injection and at 2 h after 24 h-injections (every second injection). Liver and brains were taken for analysis 12 h after the last injection. Three rats were used per compound. After the single (first) SC injection, we obtained a prototypical PK profile observed in the case of all Mn(III) ortho […] In contrast, although similarly absorbed after SC injection, the […] Our understanding is that the “elimination” process is actually a fast distribution/retention into/by the liver, kidney, and spleen, a multi-compartmental process responsible for early decay of the plasma concentration, observed for all Mn porphyrin analogs investigated.

SOD-deficient E. coli = settings: higher than MnHex; cited from earlier work
[3] = healthy rats, SC 0.225 mg/kg BID 7 days, 12 h after last injection
[4] = healthy rats, SC 0.225 mg/kg BID 7 days, WinNonlin simulation

Substance: monohydroxo Fe(III) meso-tetrakis(N-n-hexylpyridinium-2yl)porphyrin [FeHex]
- level in injured (right) brain hemisphere ([1]; rats after 90-min MCAO, 0.225 mg/kg IV + 0.225 mg/kg SC, 2 h after reperfusion): ~ 55 nM
- liver level relative to MnHex ([1]; rats after MCAO, 2 h): lower in the liver
- plasma level relative to MnHex ([1]; rats after MCAO, 2 h): higher in plasma
- plasma exposure (AUC) relative to MnHex ([2]; 7-day twice-daily treatment of rats): more than 2 fold
- brain concentration at end of 7-day treatment [2, 3]: 24 nM
- end-of-treatment 7-day liver tissue level [2, 3]: 0.04 µM
- average plasma concentration (Caver) [2, 4]: 160 nM
- plasma AUC [2, 4]: 26.9 µM·h
- Cmax ([2]; healthy rats, SC 0.225 mg/kg BID 7 days, WinNonlin simulation, read-out: Cmax at steady state, plasma): 210 nM
- elimination from plasma after single (first) SC injection ([2]; healthy rats, SC 0.225 mg/kg, first 12 h): much slower elimination from the plasma
- plasma half-life ([2]; healthy rats, SC 0.225 mg/kg, estimated from simulation, 0.225 mg/kg): 23 h and ~ 23 h
- efficacy in SOD-deficient E. coli model relative to MnHex (SOD-deficient E. coli): ~ 2 orders of magnitude
